Data from the NIST ThermoML archive (doi:10.1016/j.fluid.2015.04.017).
Numbers after ± are expanded uncertainties.

Assay: xn = mol fraction of the nth substance listed
Conditions: 101 kPa, Liquid; for viscosity: Concentric cylinders viscometry; for mass density: Vibrating tube method

## CCOC(=O)C(C)O (stereo not drawn) [DL-ethyl lactate] + Cc1ccccc1
288.15 K, x1 = 0.1001
  viscosity: 0.6897 ± 0.008 mPa·s
  mass density: 887.622 ± 0.13 kg/m3
288.15 K, x1 = 0.2001
  viscosity: 0.7894 ± 0.0089 mPa·s
  mass density: 904.719 ± 0.13 kg/m3
288.15 K, x1 = 0.3
  viscosity: 0.9136 ± 0.01 mPa·s
  mass density: 921.906 ± 0.14 kg/m3
288.15 K, x1 = 0.4
  viscosity: 1.06 ± 0.011 mPa·s
  mass density: 939.168 ± 0.14 kg/m3
288.15 K, x1 = 0.4998
  viscosity: 1.258 ± 0.013 mPa·s
  mass density: 956.144 ± 0.15 kg/m3
288.15 K, x1 = 0.6001
  viscosity: 1.493 ± 0.015 mPa·s
  mass density: 973.156 ± 0.17 kg/m3
288.15 K, x1 = 0.7
  viscosity: 1.795 ± 0.018 mPa·s
  mass density: 990.077 ± 0.18 kg/m3
288.15 K, x1 = 0.7999
  viscosity: 2.174 ± 0.022 mPa·s
  mass density: 1006.73 ± 0.2 kg/m3
288.15 K, x1 = 0.9
  viscosity: 2.637 ± 0.027 mPa·s
  mass density: 1023.31 ± 0.23 kg/m3
288.15 K, x1 = 1
  viscosity: 3.207 ± 0.033 mPa·s
  mass density: 1039.28 ± 0.26 kg/m3
293.15 K, x1 = 0.1001
  viscosity: 0.6502 ± 0.0077 mPa·s
  mass density: 882.811 ± 0.13 kg/m3
293.15 K, x1 = 0.2001
  viscosity: 0.7404 ± 0.0085 mPa·s
  mass density: 899.769 ± 0.13 kg/m3
293.15 K, x1 = 0.3
  viscosity: 0.8468 ± 0.0094 mPa·s
  mass density: 916.845 ± 0.14 kg/m3
293.15 K, x1 = 0.4
  viscosity: 0.9765 ± 0.011 mPa·s
  mass density: 934.015 ± 0.15 kg/m3
293.15 K, x1 = 0.4998
  viscosity: 1.141 ± 0.012 mPa·s
  mass density: 950.923 ± 0.15 kg/m3
293.15 K, x1 = 0.6001
  viscosity: 1.344 ± 0.014 mPa·s
  mass density: 967.906 ± 0.17 kg/m3
293.15 K, x1 = 0.7
  viscosity: 1.597 ± 0.017 mPa·s
  mass density: 984.738 ± 0.18 kg/m3
293.15 K, x1 = 0.7999
  viscosity: 1.911 ± 0.02 mPa·s
  mass density: 1001.36 ± 0.2 kg/m3
293.15 K, x1 = 0.9
  viscosity: 2.29 ± 0.024 mPa·s
  mass density: 1017.91 ± 0.23 kg/m3
293.15 K, x1 = 1
  viscosity: 2.75 ± 0.028 mPa·s
  mass density: 1033.84 ± 0.26 kg/m3
298.15 K, x1 = 0.1001
  viscosity: 0.6148 ± 0.0074 mPa·s
  mass density: 877.99 ± 0.13 kg/m3
298.15 K, x1 = 0.2001
  viscosity: 0.6896 ± 0.0081 mPa·s
  mass density: 894.808 ± 0.13 kg/m3
298.15 K, x1 = 0.3
  viscosity: 0.7865 ± 0.0089 mPa·s
  mass density: 911.77 ± 0.14 kg/m3
298.15 K, x1 = 0.4
  viscosity: 0.9011 ± 0.0099 mPa·s
  mass density: 928.847 ± 0.15 kg/m3
298.15 K, x1 = 0.4998
  viscosity: 1.043 ± 0.011 mPa·s
  mass density: 945.727 ± 0.16 kg/m3
298.15 K, x1 = 0.6001
  viscosity: 1.22 ± 0.013 mPa·s
  mass density: 962.633 ± 0.17 kg/m3
298.15 K, x1 = 0.7
  viscosity: 1.434 ± 0.015 mPa·s
  mass density: 979.381 ± 0.18 kg/m3
298.15 K, x1 = 0.7999
  viscosity: 1.695 ± 0.018 mPa·s
  mass density: 995.963 ± 0.2 kg/m3
298.15 K, x1 = 0.9
  viscosity: 2.01 ± 0.021 mPa·s
  mass density: 1012.47 ± 0.22 kg/m3
298.15 K, x1 = 1
  viscosity: 2.39 ± 0.025 mPa·s
  mass density: 1028.39 ± 0.25 kg/m3
303.15 K, x1 = 0.1001
  viscosity: 0.5814 ± 0.0072 mPa·s
  mass density: 873.16 ± 0.13 kg/m3
303.15 K, x1 = 0.2001
  viscosity: 0.6488 ± 0.0077 mPa·s
  mass density: 889.833 ± 0.14 kg/m3
303.15 K, x1 = 0.3
  viscosity: 0.7345 ± 0.0085 mPa·s
  mass density: 906.687 ± 0.14 kg/m3
303.15 K, x1 = 0.4
  viscosity: 0.8343 ± 0.0094 mPa·s
  mass density: 923.666 ± 0.15 kg/m3
303.15 K, x1 = 0.4998
  viscosity: 0.9586 ± 0.011 mPa·s
  mass density: 940.433 ± 0.16 kg/m3
303.15 K, x1 = 0.6001
  viscosity: 1.112 ± 0.012 mPa·s
  mass density: 957.336 ± 0.17 kg/m3
303.15 K, x1 = 0.7
  viscosity: 1.295 ± 0.014 mPa·s
  mass density: 974.002 ± 0.18 kg/m3
303.15 K, x1 = 0.7999
  viscosity: 1.517 ± 0.016 mPa·s
  mass density: 990.547 ± 0.2 kg/m3
303.15 K, x1 = 0.9
  viscosity: 1.782 ± 0.019 mPa·s
  mass density: 1007.14 ± 0.22 kg/m3
303.15 K, x1 = 1
  viscosity: 2.097 ± 0.022 mPa·s
  mass density: 1022.92 ± 0.25 kg/m3
308.15 K, x1 = 0.1001
  viscosity: 0.5513 ± 0.0069 mPa·s
  mass density: 868.317 ± 0.13 kg/m3
308.15 K, x1 = 0.2001
  viscosity: 0.6122 ± 0.0074 mPa·s
  mass density: 884.843 ± 0.14 kg/m3
308.15 K, x1 = 0.3
  viscosity: 0.6876 ± 0.0081 mPa·s
  mass density: 901.583 ± 0.14 kg/m3
308.15 K, x1 = 0.4
  viscosity: 0.7756 ± 0.0089 mPa·s
  mass density: 918.463 ± 0.15 kg/m3
308.15 K, x1 = 0.4998
  viscosity: 0.8842 ± 0.0099 mPa·s
  mass density: 935.187 ± 0.16 kg/m3
308.15 K, x1 = 0.6001
  viscosity: 1.017 ± 0.011 mPa·s
  mass density: 952.011 ± 0.17 kg/m3
308.15 K, x1 = 0.7
  viscosity: 1.176 ± 0.013 mPa·s
  mass density: 968.604 ± 0.18 kg/m3
308.15 K, x1 = 0.7999
  viscosity: 1.367 ± 0.015 mPa·s
  mass density: 985.109 ± 0.2 kg/m3
308.15 K, x1 = 0.9
  viscosity: 1.592 ± 0.017 mPa·s
  mass density: 1001.53 ± 0.21 kg/m3
308.15 K, x1 = 1
  viscosity: 1.858 ± 0.02 mPa·s
  mass density: 1017.42 ± 0.24 kg/m3
313.15 K, x1 = 0.1001
  viscosity: 0.5218 ± 0.0067 mPa·s
  mass density: 863.457 ± 0.13 kg/m3
313.15 K, x1 = 0.2001
  viscosity: 0.5761 ± 0.0071 mPa·s
  mass density: 879.836 ± 0.14 kg/m3
313.15 K, x1 = 0.3
  viscosity: 0.6439 ± 0.0077 mPa·s
  mass density: 896.465 ± 0.14 kg/m3
313.15 K, x1 = 0.4
  viscosity: 0.7225 ± 0.0084 mPa·s
  mass density: 913.246 ± 0.15 kg/m3
313.15 K, x1 = 0.4998
  viscosity: 0.8182 ± 0.0093 mPa·s
  mass density: 929.878 ± 0.16 kg/m3
313.15 K, x1 = 0.6001
  viscosity: 0.935 ± 0.01 mPa·s
  mass density: 946.664 ± 0.17 kg/m3
313.15 K, x1 = 0.7
  viscosity: 1.073 ± 0.012 mPa·s
  mass density: 963.183 ± 0.18 kg/m3
313.15 K, x1 = 0.7999
  viscosity: 1.239 ± 0.013 mPa·s
  mass density: 979.648 ± 0.2 kg/m3
313.15 K, x1 = 0.9
  viscosity: 1.432 ± 0.015 mPa·s
  mass density: 996.054 ± 0.21 kg/m3
313.15 K, x1 = 1
  viscosity: 1.658 ± 0.018 mPa·s
  mass density: 1011.9 ± 0.24 kg/m3
318.15 K, x1 = 0.1001
  viscosity: 0.4943 ± 0.0065 mPa·s
  mass density: 858.58 ± 0.14 kg/m3
318.15 K, x1 = 0.2001
  viscosity: 0.5433 ± 0.0069 mPa·s
  mass density: 874.813 ± 0.14 kg/m3
318.15 K, x1 = 0.3
  viscosity: 0.6042 ± 0.0074 mPa·s
  mass density: 891.323 ± 0.14 kg/m3
318.15 K, x1 = 0.4
  viscosity: 0.6744 ± 0.008 mPa·s
  mass density: 908.008 ± 0.15 kg/m3
318.15 K, x1 = 0.4998
  viscosity: 0.7599 ± 0.0088 mPa·s
  mass density: 924.579 ± 0.16 kg/m3
318.15 K, x1 = 0.6001
  viscosity: 0.8633 ± 0.0098 mPa·s
  mass density: 941.286 ± 0.17 kg/m3
318.15 K, x1 = 0.7
  viscosity: 0.985 ± 0.011 mPa·s
  mass density: 957.74 ± 0.18 kg/m3
318.15 K, x1 = 0.7999
  viscosity: 1.13 ± 0.012 mPa·s
  mass density: 974.163 ± 0.2 kg/m3
318.15 K, x1 = 0.9
  viscosity: 1.296 ± 0.014 mPa·s
  mass density: 990.49 ± 0.21 kg/m3
318.15 K, x1 = 1
  viscosity: 1.491 ± 0.016 mPa·s
  mass density: 1006.36 ± 0.23 kg/m3
323.15 K, x1 = 0.1001
  viscosity: 0.4712 ± 0.0063 mPa·s
  mass density: 853.686 ± 0.14 kg/m3
323.15 K, x1 = 0.2001
  viscosity: 0.5163 ± 0.0067 mPa·s
  mass density: 869.771 ± 0.14 kg/m3
323.15 K, x1 = 0.3
  viscosity: 0.5718 ± 0.0071 mPa·s
  mass density: 886.165 ± 0.15 kg/m3
323.15 K, x1 = 0.4
  viscosity: 0.6343 ± 0.0077 mPa·s
  mass density: 902.749 ± 0.15 kg/m3
323.15 K, x1 = 0.4998
  viscosity: 0.7115 ± 0.0084 mPa·s
  mass density: 919.234 ± 0.16 kg/m3
323.15 K, x1 = 0.6001
  viscosity: 0.8038 ± 0.0092 mPa·s
  mass density: 935.886 ± 0.17 kg/m3
323.15 K, x1 = 0.7
  viscosity: 0.912 ± 0.01 mPa·s
  mass density: 952.282 ± 0.18 kg/m3
323.15 K, x1 = 0.7999
  viscosity: 1.038 ± 0.011 mPa·s
  mass density: 968.653 ± 0.2 kg/m3
323.15 K, x1 = 0.9
  viscosity: 1.186 ± 0.013 mPa·s
  mass density: 984.965 ± 0.21 kg/m3
323.15 K, x1 = 1
  viscosity: 1.349 ± 0.015 mPa·s
  mass density: 1000.79 ± 0.23 kg/m3
